From US12043600B2, “Microbiocidal compounds” (SYNGENTA CROP PROTECTION AG, priority 2018, dated 2024)
Like-named read-outs stand apart in the source and are kept apart here.

What was measured:
[1] = system: Blumeria graminis f. sp. tritici (Erysiphe graminis f. sp. tritici); test: Blumeria graminis f. sp. tritici/Wheat/Leaf Disc Preventative (Powdery Mildew on Wheat); format: in vivo; conditions: foliar, wheat leaf disc preventative, compared to untreated control
Method in brief: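 Wheat cv. Kanzler leaf segments on agar sprayed with formulated compound, inoculated with powdery mildew 1 day later and held at 20° C, 60% rh (24 h dark, then 12 h light/12 h dark). Percent disease control versus untreated scored 6-8 days after application.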

[2] = system: Mycosphaerella graminicola (Septoria tritici); test: Mycosphaerella graminicola (Septoria tritici)/Liquid Culture (Septoria Blotch); format: cell-based; conditions: Zymoseptoria tritici; 20 ppm; liquid culture; compared to untreated control
Method in brief: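 Conidia from cryogenic storage mixed into potato dextrose broth and added to microtiter wells already holding DMSO solutions of test compound. Activity expressed as percentage disease control.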

Plasmopara viticola = test: whole plant or invertebrate; format: in vivo; conditions: foliar, read-out: control of Plasmopara viticola
[3] = system: Mycosphaerella arachidis (Cercospora arachidicola); test: Mycosphaerella arachidis (Cercospora arachidicola)/Liquid Culture (Early Leaf Spot); format: cell-based; conditions: liquid culture, compared to untreated control
Method in brief: (§1)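 Test compound dissolved in DMSO is dispensed first; nutrient broth (potato dextrose) carrying conidia thawed from cryogenic storage follows.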

[4] = system: Thanatephorus cucumeris (Rhizoctonia solani); test: Thanatephorus cucumeris (Rhizoctonia solani)/Liquid Culture (Foot Rot, Damping-Off); format: cell-based; conditions: liquid culture, compared to untreated control
Method: Mycelia fragments of a newly grown liquid culture of the fungus are directly mixed into nutrient broth (PDB potato dextrose broth). After placing a (DMSO) solution of the test compounds into a microtiter plate (96-well format), the nutrient broth containing the fungal material is added.

[5] = system: Glomerella lagenarium (Colletotrichum lagenarium); test: Glomerella lagenarium (Colletotrichum lagenarium)/Liquid Culture (Anthracnose); format: cell-based; conditions: Colletotrichum orbiculare, liquid culture, compared to untreated control
Alternaria solani = test: Alternaria solani/Tomato/Leaf Disc (Early Blight); format: in vivo; conditions: foliar, tomato leaf disc, compared to untreated control
Method in brief: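 Tomato cv. Baby leaf disks on agar were sprayed with diluted formulated compound and inoculated with spores 2 days later. Incubation at 23° C./21° C. day/night, 80% rh, 12/12 h light; percent disease control versus untreated scored 5-7 days after application.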

[6] = system: Puccinia recondita f. sp. tritici; test: Puccinia recondita f. sp. tritici/Wheat/Leaf Disc Curative (Brown Rust); format: in vivo; conditions: foliar, wheat leaf disc curative, compared to untreated control
Method in brief: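 Curative leaf-disc test on wheat cv. Kanzler segments on agar, spore-inoculated and kept dark at 19° C, 75% rh; formulated compound in water applied 1 day after inoculation. Incubated at 19° C, 75% rh, 12 h light/12 h dark; percent disease control versus untreated scored 6-8 days after application.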

[7] = Photostability assay (Atlas Suntest); format: physicochemical; conditions: Suntest 750 W/m^2, spotted on microscope slides
Method in brief: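 Compound (2 μl of 1 g/L methanol stock) spotted on glass slides and irradiated at 750 W/m^2 in a Suntest. Slides were washed with H2O:MeCN:THF 50:40:10 and analysed by reverse-phase UPLC-PDA; peak area versus initial gave % parent remaining at 3 hours.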

[8] = system: Phaeosphaeria nodorum (Septoria nodorum); test: Phaeosphaeria nodorum (Septoria nodorum)/Wheat/Leaf Disc Preventative (Glume Blotch); format: in vivo; conditions: Parastagonospora nodorum, foliar, wheat leaf disc preventative, compared to untreated control
Method in brief: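 Wheat cv. Kanzler leaf discs on agar were sprayed with formulated compound diluted in water and inoculated with P. nodorum spores 2 days later. Discs kept at 20 °C, 75% rh, 12 h light/dark; percent disease control versus untreated scored 5–7 days after application.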

Pythium ultimum = test: Pythium ultimum/Liquid Culture (Seedling Damping Off); format: cell-based; conditions: Globisporangium ultimum, liquid culture, compared to untreated control
Method: Mycelia fragments and oospores of a newly grown liquid culture of the fungus are directly mixed into nutrient broth (PDB potato dextrose broth). After placing a (DMSO) solution of test compound into a microtiter plate (96-well format), the nutrient broth containing the fungal mycelia/spore mixture is added.

Sclerotinia sclerotiorum = test: Sclerotinia sclerotiorum/Liquid Culture (Cottony Rot); format: cell-based; conditions: liquid culture, compared to untreated control
Method: Mycelia fragments of a newly grown liquid culture of the fungus are directly mixed into nutrient broth (PDB potato dextrose broth). After placing a (DMSO) solution of test compound into a microtiter plate (96-well format) the nutrient broth containing the fungal material is added.

[9] = system: Puccinia recondita f. sp. tritici; test: Puccinia recondita f. sp. tritici/Wheat/Leaf Disc Preventative (Brown Rust); format: in vivo; conditions: foliar, 200 ppm, wheat leaf disc preventative, compared to untreated control, read-out: control of Puccinia recondita f. sp. tritici
[10] = system: Monographella nivalis (Microdochium nivale); test: Monographella nivalis (Microdochium nivale)/Liquid Culture (Foot Rot Cereals); format: cell-based; conditions: liquid culture, compared to untreated control
Method in brief: as §1

[11] = system: Magnaporthe grisea (Pyricularia oryzae); test: whole plant or invertebrate; format: in vivo; conditions: foliar, read-out: control of Magnaporthe grisea
Phytophthora infestans = test: whole plant or invertebrate; format: in vivo; conditions: in Solanum lycopersicum, foliar, read-out: control of Phytophthora infestans
[12] = system: Botryotinia fuckeliana (Botrytis cinerea); test: Botryotinia fuckeliana (Botrytis cinerea)/Liquid Culture (Gray Mould); format: cell-based; conditions: liquid culture, compared to untreated control
Method: Conidia of the fungus from cryogenic storage are directly mixed into nutrient broth (Vogels broth). After placing a (DMSO) solution of test compound into a microtiter plate (96-well format), the nutrient broth containing the fungal spores is added.

Phakopsora pachyrhizi = test: Phakopsora pachyrhizi/Soybean/Preventative (Soybean Rust); format: in vivo; conditions: 288 h

CO/C=C(\Oc1cc(-n2ccc(C(C)(F)F)n2)ccc1C)C(=O)OC [Compound E-68, methyl (Z)-2-[5-[3-(1,1-difluoroethyl)pyrazol-1-yl]-2-methyl-phenoxy]-3-methoxy-prop-2-enoate]
40%: % Parent Remaining @ 3 hrs [7]
≥ 80%: pest or weed control at 200 ppm [1] | inhibition of growth at 20 ppm [2] | pest or weed control at 200 ppm (Plasmopara viticola) | inhibition of growth at 20 ppm [3] | inhibition of growth at 20 ppm [4] | inhibition of growth at 20 ppm [5] | pest or weed control at 200 ppm (Alternaria solani) | pest or weed control at 200 ppm [6] | pest or weed control at 200 ppm [8] | inhibition of growth at 20 ppm (Pythium ultimum) | inhibition of growth at 20 ppm (Sclerotinia sclerotiorum) | pest or weed control at 200 ppm [9] | inhibition of growth at 20 ppm [10] | pest or weed control at 200 ppm [11]
119 to 121 °C: melting point

CO/C=C(\Oc1cc(-n2cc(C3CCC3)cn2)ccc1C)C(=O)OC [Compound E-80, methyl (Z)-2-[5-(4-cyclobutylpyrazol-1-yl)-2-methyl-phenoxy]-3-methoxy-prop-2-enoate]
≥ 80%: pest or weed control at 200 ppm [1] | pest or weed control at 200 ppm (Phytophthora infestans) | inhibition of growth at 20 ppm [2] | inhibition of growth at 20 ppm [12] | pest or weed control at 200 ppm (Plasmopara viticola) | inhibition of growth at 20 ppm [3] | inhibition of growth at 20 ppm [5] | pest or weed control at 200 ppm (Alternaria solani) | pest or weed control at 200 ppm [6] | inhibition of growth at 20 ppm (Pythium ultimum) | pest or weed control at 200 ppm [9] | inhibition of growth at 20 ppm [10] | pest or weed control at 200 ppm [11]
≥ 50%: pest or weed control at 200 ppm (Phakopsora pachyrhizi; foliar, soybean leaf disc preventative, compared to untreated control, read-out: control of Phakopsora pachyrhizi)

CO/C=C(\Oc1cc(-n2ccc(C(C)C)n2)ccc1C)C(=O)OC [Compound E-92, methyl (Z)-2-[5-(3-isopropylpyrazol-1-yl)-2-methyl-phenoxy]-3-methoxy-prop-2-enoate]
90%: pest or weed control at 20 ppm (Phakopsora pachyrhizi; Phakopsora pachyrhizi (Soybean rust), 20 ppm)
35%: pest or weed control at 6 ppm (Phakopsora pachyrhizi; Phakopsora pachyrhizi (Soybean rust), 6 ppm)
0%: pest or weed control at 0.6 ppm (Phakopsora pachyrhizi; Phakopsora pachyrhizi (Soybean rust), 0.6 ppm) | pest or weed control at 2 ppm (Phakopsora pachyrhizi; Phakopsora pachyrhizi (Soybean rust), 2 ppm)
≥ 80%: pest or weed control at 200 ppm [1] | pest or weed control at 200 ppm (Phytophthora infestans) | inhibition of growth at 20 ppm [2] | inhibition of growth at 20 ppm [12] | pest or weed control at 200 ppm (Plasmopara viticola) | inhibition of growth at 20 ppm [3] | inhibition of growth at 20 ppm [5] | pest or weed control at 200 ppm [8] | inhibition of growth at 20 ppm (Pythium ultimum) | inhibition of growth at 20 ppm [10] | pest or weed control at 200 ppm [11]
33%: % Parent Remaining @ 3 hrs [7]
88 to 91 °C: melting point
100%: pest or weed control at 60 ppm (Phakopsora pachyrhizi; Phakopsora pachyrhizi (Soybean rust), 60 ppm) | pest or weed control at 200 ppm (Phakopsora pachyrhizi; Phakopsora pachyrhizi (Soybean rust), read-out: control (%))
